Measured values reported in patent US6384222B1, “N-benzenesulfonyl-L-proline compounds, preparation method and method for using the compounds in therapy” (Fournier Industrie et Sante, priority 1997, dated 2002).

What was measured:
[1] = biological target: T1, bradykinin B2 receptor (Cavia porcellus, UniProt O70526); test: Inhibition of [3H]-bradykinin binding to guinea-pig ileum membranes; conditions: test compound 10^-6 M, [3H]-bradykinin 120 pM, 90 min at 20° C.
T1 construct: Ileum segments are isolated from male guinea-pigs; from tissue; host or cells: guinea-pig ileum (Dunkin-Hartley strain; animals from Iffa Credo)
T1 sequence (O70526 1-372): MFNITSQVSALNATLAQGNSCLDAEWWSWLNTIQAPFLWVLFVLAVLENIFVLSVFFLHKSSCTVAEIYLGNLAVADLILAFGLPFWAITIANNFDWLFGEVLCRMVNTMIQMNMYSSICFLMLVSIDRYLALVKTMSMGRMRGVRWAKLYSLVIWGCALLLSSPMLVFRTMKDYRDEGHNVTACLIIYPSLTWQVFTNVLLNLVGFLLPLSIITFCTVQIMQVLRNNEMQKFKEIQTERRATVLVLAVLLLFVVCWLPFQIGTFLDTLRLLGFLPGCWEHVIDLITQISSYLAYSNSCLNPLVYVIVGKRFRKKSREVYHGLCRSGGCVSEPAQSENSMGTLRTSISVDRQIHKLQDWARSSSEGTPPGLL
Experimental: The following pharmacological test is used: Ileum segments are isolated from male guinea-pigs [of the Dunkin-Hartley strain (Iffa Credo, l'Arbresle, France)] and ground in the following TES buffer: TES 25 mM, 1,10-phenanthroline 1 mM (pH 6.8), bacitracin 140 μg/ml, BSA 1 g/l. The membranes are then isolated by centrifugation (18,000 rpm; 20 min 4° C.). The binding studies are carried out in this TES buffer using [^3H]-bradykinin (120 pM) and 50 μg of membrane protein per test (final volume 500 μl) with an equilibrium time of 90 min at 20° C. The percentage inhibition of the binding of [^3H]-bradykinin is then determined in the presence of one of the test compounds according to the invention at a concentration of 10^−6 M.
The results obtained from these tests (shown as “activity”) are collated in Table I below with reference to the Examples given in the description. In this Table, the meaning of the heterocyclic radicals Q is given in the notes and the nature of the salts is indicated by the abbreviations Chl in the case of a hydrochloric acid salt and Ms in the case of a methanesulfonic acid salt.

[2] = biological target: T1, bradykinin B2 receptor; test: Antagonism of bradykinin-induced B2 receptor activation on guinea-pig ileum (pKB, Pruneau et al.); conditions: antagonism of bradykinin at B2 receptor
Source text: The compounds according to the invention have an antagonistic effect towards the bradykinin B2 receptor (they inhibit the activation of the B2 receptors which is induced by bradykinin). […] The experimental results, evaluated by the pKB described in the above publication, are reported in the summary Table.

## CS(=O)(=O)O.CS(=O)(=O)O.Cc1nc2c(OCc3c(Cl)ccc(S(=O)(=O)N4CCC[C@H]4C(=O)NCCCNC(=O)c4ccc(C(=N)N)cc4)c3Cl)cccn2c1Cl [Example 38, 1-[[3-[[3-Chloro-2-methylimidazo[1,2-a]pyridin-8-yl]oxymethyl]-2,4-dichlorophenyl]sulfonyl]-N-[3-[[4-(aminoimiomethyl)benzoyl]amino]propyl]-2(S)-pyrrolidinecarboxamide Bis(methanesulfonate)]
[1]
  Activity % (percentage inhibition of the binding of [3H]-bradykinin): 100%

## CS(=O)(=O)O.CS(=O)(=O)O.Cc1cc(=O)n2cccc(OCc3c(Cl)ccc(S(=O)(=O)N4CCC[C@H]4C(=O)NCCCNC(=O)c4ccc(C(=N)N)cc4)c3Cl)c2n1 [Example 30, 1-[[3-[[2-Methyl-4H-pyrido[1,2-a]pyrimidin-9-yl-4-one]oxymethyl]-2,4-dichlorophenyl]sulfonyl]-N-[3-[[4-(aminoiminomethyl)benzoyl]amino]propyl]-2(S)-pyrrolidinecarboxamide Bis(methanesulfonate)]
[1]
  Activity % (percentage inhibition of the binding of [3H]-bradykinin): 99.3%
[2]
  pKB: 7.9

## CC(=O)c1c(C)nc2c(OCc3c(Cl)ccc(S(=O)(=O)N4CCC[C@H]4C(=O)NCCCNC(=O)c4ccc(C(=N)N)cc4)c3Cl)cccn12.CS(=O)(=O)O.CS(=O)(=O)O [Example 44, 1-[[3-[[3-Acetyl-2-methylimidazo[1,2-a]pyridin-8-yl]oxymethyl]-2,4-dichlorophenyl]sulfonyl]-N-[3-[[4-(aminoiminomethyl)benzoyl]amino]propyl]-2(S)-pyrrolidinecarboxamide Bis(methanestilfonate)]
[1]
  Activity % (percentage inhibition of the binding of [3H]-bradykinin): 100%

## CS(=O)(=O)O.CS(=O)(=O)O.Cc1cc(=O)n2cccc(OCc3c(Cl)ccc(S(=O)(=O)N4CCC[C@H]4C(=O)N4CCN(C(=O)c5ccc(C(=N)N)cc5)CC4)c3Cl)c2n1 [Example 33]
[1]
  Activity % (percentage inhibition of the binding of [3H]-bradykinin): 96%
[2]
  pKB: 7.8

## CS(=O)(=O)O.CS(=O)(=O)O.Cc1nc2c(OCc3c(Cl)ccc(S(=O)(=O)N4CCC[C@H]4C(=O)N4CCN(C(=O)c5ccc(C(=N)N)cc5)CC4)c3Cl)cccn2c1Cl [Example 41]
[1]
  Activity % (percentage inhibition of the binding of [3H]-bradykinin): 100%
